Assay results published in patent publication US20140357713A1, “ANTIMICROBIAL COMPOUNDS AND METHODS OF USE” (NexMed Holdings, Inc., priority 2012, published 2014).
Read-outs that look alike come from different tables or passages of the source.

How the values were obtained:
[1] = test system: Staphylococcus aureus (ATCC 29213); experiment: Time kill study, Example 33 (0 to 5 min); type: cell-based; details: 1×MIC
Outline: (§1)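 Performed per CLSI guidelines. Strain suspensions prepared as for MIC testing were mixed with compound solution in equal volume; samples taken at 0 min, 30 sec, 1 min and 5 mins were diluted in test medium, streaked on agar, and colonies counted after 24 to 48 hrs to give viable counts in Log10 CFU/mL.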

[2] = test system: Pseudomonas aeruginosa (ATCC 27853); experiment: Time kill study, Example 33 (0 to 5 min); type: cell-based; details: 1×MIC
Outline: as §1

[3] = test system: Escherichia coli (ATCC 25922); experiment: Time kill study, Example 33 (0 to 5 min); type: cell-based; details: 1×MIC
Outline: as §1

[4] = test system: Staphulococcus aureus (ATCC 29213); experiment: Minimum inhibitory concentration (MIC) assay, Example 33; type: cell-based, Staphylococcus aureus; details: Staphylococcus aureus
Outline: (§2)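 In CAMHB, 2-fold compound series meet bacteria from fresh isolated colonies, turbidity-adjusted to OD600 0.08-0.13 and diluted 1:100 (2× inoculum). Incubation: 35° C. Endpoint: MIC per CLSI.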

pH (Table 1) = type: physicochemical
[5] = test system: Candida albicans (ATCC 90029); experiment: Minimum inhibitory concentration (MIC) assay, Example 33; type: cell-based; details: Candida albicans
Outline: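 Broth microdilution per CLSI guidelines in RPMI 1640; inoculum set to OD530 0.08–0.13, diluted 1:50 then 1:20 to 2× strength and mixed 1:2 with 2-fold serial compound dilutions. Incubated at 35° C; MIC read per CLSI.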

[6] = Solubility (Sol., Table 1); type: physicochemical
[7] = test system: Aspergillus niger (CMCC 98003); experiment: Minimum inhibitory concentration (MIC) assay, Example 33; type: cell-based; details: Aspergillus niger
Outline: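 Broth microdilution MIC per CLSI guidelines in RPMI 1640 with serial 2-fold compound dilutions. Spore suspension from sporulating colonies adjusted to OD530 0.09-0.13, diluted 1:50 as 2× inoculum and added 1:2 to drug wells; plates incubated at 35 °C and MIC read per CLSI.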

[8] = test system: Pseudomonas aeruginosa (ATCC 27853); experiment: as above; type: cell-based; details: Pseudomonas aeruginosa
Outline: as §2

[9] = test system: Escherichia coli (ATCC 25922); experiment: as above; type: cell-based; details: Escherichia coli
Outline: as §2

Structure (SMILES): CCCCCCCCCCCC(C)(C)OC(=O)C(C)N(C)C.Cl (stereo not drawn) [Nex-65, 2-Methyltridecan-2-yl 2-(dimethylamino)propanoate hydrochloride]
- Viable counts, Staphylococcus aureus time kill study ([1]; 0.5 min): 6.39 Log10 CFU/mL
- Viable counts, Staphylococcus aureus time kill study ([1]; 1 min): 6.35 Log10 CFU/mL
- Viable counts, Staphylococcus aureus time kill study ([1]; 5 min): 6.17 Log10 CFU/mL
- Viable counts, Staphylococcus aureus time kill study ([1]; time 0): 6.34 Log10 CFU/mL
- Viable counts, Pseudomonas aeruginosa time kill study ([2]; 0.5 min): 5.36 Log10 CFU/mL
- Viable counts, Pseudomonas aeruginosa time kill study ([2]; 1 min): 5.52 Log10 CFU/mL
- Viable counts, Pseudomonas aeruginosa time kill study ([2]; 5 min): <3.52 Log10 CFU/mL
- Viable counts, Pseudomonas aeruginosa time kill study ([2]; time 0): 5.52 Log10 CFU/mL
- Viable counts, Escherichia coli time kill study ([3]; 0.5 min): 5.72 Log10 CFU/mL
- Viable counts, Escherichia coli time kill study ([3]; 1 min): 5.97 Log10 CFU/mL
- Viable counts, Escherichia coli time kill study ([3]; 5 min): 4.22 Log10 CFU/mL
- Viable counts, Escherichia coli time kill study ([3]; time 0): 5.68 Log10 CFU/mL
- MIC ([4]; ATCC29213, Table 19 summary, read-out: MIC): 3130 µg/mL
- MIC ([4]; ATCC29213, n = 1, read-out: MIC S. aureus): 3130 µg/mL
- MIC ([4]; ATCC29213, n = 2, read-out: MIC S. aureus): 3130 µg/mL
- pH (pH (Table 1)): 1.66
- MIC ([5]; ATCC90029, Table 19 summary, read-out: MIC): > 12500 µg/mL
- MIC ([5]; ATCC90029, n = 1, read-out: MIC Candida albicans): > 12500 µg/mL
- MIC ([5]; ATCC90029, n = 2, read-out: MIC Candida albicans): > 12500 µg/mL
- Sol. [6]: 51%
- MIC ([7]; CMCC98003, Table 19 summary, read-out: MIC): > 12500 µg/mL
- MIC ([7]; CMCC98003, n = 1, read-out: MIC Aspergillus niger): > 12500 µg/mL
- MIC ([7]; CMCC98003, n = 2, read-out: MIC Aspergillus niger): > 12500 µg/mL
- MIC ([8]; ATCC27853, Table 19 summary, read-out: MIC): 6250 µg/mL
- MIC ([8]; ATCC27853, n = 1, read-out: MIC P. aeruginosa): 6250 µg/mL
- MIC ([8]; ATCC27853, n = 2, read-out: MIC P. aeruginosa): 6250 µg/mL
- MIC ([9]; ATCC25922, Table 19 summary of Example 33 and Example 35, read-out: MIC): 3130 µg/mL
- MIC ([9]; ATCC25922, n = 1, read-out: MIC E. coli): 3130 µg/mL
- MIC ([9]; ATCC25922, n = 2, read-out: MIC E. coli): 3130 µg/mL
- melting point: 100 to 106 °C
